Data taken from the METLIN SMRT retention time set (Domingo-Almenara et al. 2019).

Assay: gradient 5% acetonitrile 3 min, to 50% in 2 min, to 85% in 15 min, held 3 min, 100 µL/min
Conditions: column: Zorbax Extend-C18 2.1 x 50 mm; eluents: water / acetonitrile, 0.1% formic acid
How it was run: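 Values are retention times taken from adduct peaks that software picked and an analyst inspected. The pure standards were run as mixtures of ~100 molecules on HPLC linked to a quadrupole time-of-flight mass spectrometer, in positive and negative ionization mode. A Zorbax Extend-C18 column (2.1 × 50 mm, 1.8 μm) was used at 100 μL/min with water and acetonitrile, each including 0.1% formic acid.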

Structure (SMILES)	RP-LC retention time [s]
Cc1nc(C(=O)OCc2cc(-c3cccs3)on2)cs1	785
Cc1ccc2c(c1)C(c1ccccc1)NCC(=O)N2 (stereo not given)	544
CCCN1CCN(c2cc(C(=O)O)c3cc(NS(=O)(=O)c4cc(F)ccc4C)ccc3n2)CC1	627
COCCN(CC1(C)CCOCC1)C(=O)NCc1ccc(F)cc1	752
O=C(Cn1cccc1-c1nnc(C2CCC2)o1)NCCc1ccc(Cl)cc1	766
Cc1ccc(-c2noc(C3CCCN3S(=O)(=O)c3ccc(C)c(Cl)c3)n2)cc1 (stereo not given)	1290
COCC1CN(C)CC12CCN(S(=O)(=O)c1ccc(F)c(C)c1)CC2 (stereo not given)	659
Clc1ccc(-c2nnc(-c3cccnc3NCc3cccs3)o2)cc1	1310
CCOCC(=O)N1CCc2nc(N3CCN(C)CC3)sc2C1	557
COC(=O)c1c(C)[nH]c(C(=O)N2CCC(CC(=O)NCc3ccc(C)cc3)CC2)c1C	762
Cc1c(C(=O)N2CCC(C(=O)N3CC=C(c4ccccc4)CC3)CC2)sc2nc[nH]c(=O)c12	728
CCc1cccc(NC(=O)C2CCN(S(=O)(=O)c3ccc4c(c3)NC(=O)C(C)O4)CC2)c1 (stereo not given)	838
COCCCNC(=O)C1CCCN(C(=O)c2[nH]c(C)cc2C)C1 (stereo not given)	652
COc1ccc(C(=O)N2CCc3nc(CNC(=O)C4CCC4)n(C)c3C2)cc1	516
CSc1ccc(-c2nc3cc(C)ccn3c2Nc2ccc(C)cc2)cc1	808
COc1ccc(OCc2nc(CCN(C)C(=O)c3ccco3)no2)cc1	782
Nc1cc(S(=O)(=O)N2CCCCCC2)ccc1Cl	902
O=C(Cn1nc2n(c1=O)CCCC2)N1CCN(c2ccc(F)cc2)CC1	651
Cc1c(CNCCN(C)C)c(C(=O)O)c(C)n1Cc1ccccc1F	591
CCC(=O)N1CCc2cc(C(=O)N3CCN(Cc4ccc5c(c4)OCO5)CC3)ccc21	611
Cn1c(N2CCC(C(=O)N3CCN(c4ccccn4)CC3)CC2)cc(=O)n(C)c1=O	578

Structure (SMILES)	RP-LC retention time [s]
Cc1cc(CNC(=O)c2cnccn2)no1	577
O=C(Cn1nc(-c2ccco2)ccc1=O)NCCOc1cc(N2CCCCC2)ncn1	588
Cn1nc(C2CC2)nc1C1CN(C(=O)Cc2ccc(S(C)(=O)=O)cc2)C1	611
Cn1cc(CN2CCC(C(=O)NCCc3ccco3)CC2)c2cc(Cl)ccc21	679
CCCNC(=O)C1CCCN(c2ccc(SCC(=O)Nc3cc(C)c(Cl)cc3OC)nn2)C1 (stereo not given)	838
CCc1ccc(CNC(=O)c2cc3n(n2)CC(C)(C(=O)NC2CCCC2)N(CC)C3=O)cc1 (stereo not given)	865
O=C(NC1CCCC1)c1csc(-c2ccc(N3CCCCC3)nc2)n1	937
O=C1C(=O)N(C2CCN(S(=O)(=O)c3ccc(F)c(Cl)c3)CC2)CCN1Cc1ccccc1	862
Cn1nc(-c2nnc(-c3ccc(F)cc3)o2)c2c1CCN(S(=O)(=O)c1ccc(F)cc1F)C2	985
O=C(Cn1nc2nc(N3CCCC3)ccn2c1=O)Nc1ccc(Cl)cc1	714
CCc1ccc(C2=C(C)C(N3CCCN(C(=O)c4ccco4)CC3)=NS2(=O)=O)cc1	838
O=c1c(NCc2ccc(Cl)cc2)nccn1-c1ccc2c(c1)OCO2	923
CCOc1ccc(-n2cc(-c3nc(-c4ccccn4)no3)c3ccccc3c2=O)cc1	599
CCN1CCN(C(=O)c2cn(-c3ccc(S(=O)(=O)N4CCCC(C)C4)cn3)cn2)CC1 (stereo not given)	659
CN1C(=O)c2cc(C(=O)NCCCN3CCCC3)nn2CC1(C)C(=O)NCc1ccccc1 (stereo not given)	589
Cc1cccc(NC(=O)N2CCc3nc(C)ncc3C2)c1	656
Cc1nn(-c2ccc(C(=O)NC3CCCC3)cn2)c(C)c1C	907
CCOc1ccc2nc(C(=O)NC3CCCCC3)cn2n1	897
CCCCN1N=C(C(=O)N2CCC(C)CC2)S(=O)(=O)c2ccc(C)cc21	1060
COCCNC(=O)c1c(C)oc2ccn(Cc3ccc(F)cc3)c(=O)c12	837
CCc1nncn1C1CCN(S(=O)(=O)c2cc(C)ccc2C)CC1	752

Structure (SMILES)	RP-LC retention time [s]
CC(=O)c1cccc(NS(=O)(=O)c2ccc(-c3c(C)noc3C)cc2)c1	805
O=C(O)c1nnn(-c2ccc3c(c2)OCCO3)c1-c1ccncc1	593
O=C(Cn1nc2n(c1=O)CCCC2)NCc1ccccc1Br	663
CC1(C)CC(=O)C2=C(C1)N(Cc1cccnc1)C(=O)C2(NC(=O)C1CCCCC1)C(F)(F)F (stereo not given)	659
CC1CCCCN1c1cc(-n2cnc(C(=O)Nc3ccc4c(c3)OCCO4)c2)ncn1 (stereo not given)	1040
C#CCSc1nc(=O)n2ccc(C)cc2n1	645
O=C(Nc1cccnc1)c1cccc(S(=O)(=O)N2CCCCCC2)c1	631
CN(CCc1noc(-c2ccc(C(=O)N3CCCC3)cc2)n1)C(=O)Cc1ccc(Cl)cc1	816
CCN1CCn2cc(S(=O)(=O)Nc3ccc(F)cc3F)cc2C1=O	727
COC(=O)c1ccc2c(=O)n(-c3ccc(Cl)cc3)c(N3CCSC3)nc2c1	1110
CCCNC(=O)CCc1nc2ccccc2n(CC(=O)NCc2ccc(C)cc2)c1=O	786
O=C(NC1CCCC1)C1CCN(C(=O)c2ncn3c2COC(c2ccc(Cl)cc2)C3)CC1 (stereo not given)	780
COc1cccc2c(C)nc(NC3=NCN(Cc4ccc5c(c4)OCO5)CN3)nc12	700
CN1C(=O)c2ccccc2Oc2ccc(C(=O)N3CCC4(CC3)OCCO4)cc21	741
CCOc1ccc(NC(=O)N2CCC(N(C)C(C)C)CC2)cc1	588
CCC(=O)N1CCCC(C(=O)N2CCOCC2)C1 (stereo not given)	564
CCOC(=O)c1cc(S(=O)(=O)N2CCCC2C(=O)Nc2ccccc2C(F)(F)F)cn1C (stereo not given)	999
Cc1noc(C)c1CCC(=O)N1CCN(c2ncnc3c2CCC3)CC1	576
C=CCNC(=O)c1cc(C)nc2c(C)cc(C)cc12	644

Further lines, results first:

RP-LC retention time [s]	Structure (SMILES)
1100	Cc1cc(C)cc(NC(=O)Cn2cnc3c(sc4nc(-c5ccccc5)ccc43)c2=O)c1
602	CN(Cc1ccc(Cl)cc1)Cc1cc(=O)n2ccccc2n1
963	COc1ccc(C(C)NC(=O)c2cc(-c3ccccc3)cn2C)cc1OC (stereo not given)
556	COc1cn2c(cc1=O)C(=O)N(CCNC(=O)c1ccc(Br)o1)CC2
759	Cc1oc(-c2ccc(NC(=O)c3ccco3)cc2)nc1Cn1cccn1
645	CCC(C)NC(=O)c1cc(=O)[nH]c2ccccc12 (stereo not given)
922	COc1ccc([N+](=O)[O-])cc1NC(=O)N(C)Cc1ccco1
695	COC(=O)c1ccc2c(=O)n(-c3cc(C)cc(C)c3)c(N3CCN(C(C)C)CC3)nc2c1
857	Cc1ccc(-c2nc(-c3ccc4ncn(C(C)C)c4c3)no2)cc1
929	CC(C)c1ccc(NC(=O)C2CC(=O)N(CCc3c[nH]c4ccc(F)cc34)C2)cc1 (stereo not given)
683	Cc1nc(C)c(-c2ccc(=O)n(CCNC(=O)c3csc(-c4ccccc4)n3)n2)s1
915	Cn1cc(CC(=O)N2CCN(c3ccccc3F)CC2)c2ccccc21
925	COc1ccc(CNC(=O)N(c2ccccc2)c2ccccc2)c(OC)c1
880	COc1ccc(-c2noc(Cn3nc(-c4ccccc4)ccc3=O)n2)c(OC)c1
906	CC(C)(C)c1ccc(-c2nc(N3CCCC3)c3ccccc3n2)cc1
762	CN(C)CCOc1ccccc1Cc1ccccc1
817	CCS(=O)(=O)c1ccc2c(c1)N(Cc1nc(-c3ccc(OC)c(OC)c3)no1)C(=O)CO2
569	COc1cc(OC)c(NC(=O)N2CCC3(C2)c2nc[nH]c2CCN3C)cc1Cl (stereo not given)
751	Cc1c(NC(=O)Nc2c(Cl)cccc2Cl)c(=O)n(-c2ccccc2)n1C
742	COc1ccc(NC(=O)N2CCC3(CC2)NC(=O)c2cc(C)ccc2N3C)cc1
892	Cc1ccc(-c2nnc(N3CCC(C(=O)NC(C)c4ccc(F)cc4)CC3)o2)cc1 (stereo not given)
850	COc1ccccc1CCN1CC(=O)N(c2cccc(C)c2)[C@@H]2CS(=O)(=O)C[C@@H]21
938	Cc1ccc(NC(=O)N2CCC(N3CCN(Cc4ccccc4)C3=O)CC2)cc1Cl
649	CCCN(Cc1ccccc1)Cc1cc(=O)n2cc(Cl)ccc2n1
640	O=C(c1cc(C2CC2)[nH]n1)N1CCn2c(nnc2-c2ccccc2)C1
694	COc1ccc(-c2ncccc2CNS(=O)(=O)Cc2cc(F)cc(F)c2)cc1
996	COc1ccc(-c2noc(Cc3nnc(-c4ccc(C)c(F)c4)o3)n2)cc1OC
858	COc1ccc2c(c1)c(N1CCCC1=O)c(C(=O)NCCc1ccc(OC)c(OC)c1OC)n2C
634	Cc1ccccc1C(=O)Nc1c(-c2ccccc2)nc2ccccn12
